# In PubChem BioAssay AID1996:
# Conditions: buffer; pH 7.4; 200.0 µM
row,solubility kinetic [µg/mL],SMILES
1,> 56.5,C/C(Cl)=C\C[N+](C)(C)CC(=O)OCCc1ccccc1.[Br-]
2,> 54.1,COCCN(CC(=O)Nc1cccc(C)c1C)C(=O)Cc1ccsc1
3,> 53.6,COC(=O)c1ccc(OCC2NCCc3cc(OC)c(OC)cc32)cc1 (centres undefined)
4,> 51.7,COc1cc(OC)c(C(=O)O/N=C(\N)c2cccc(C)c2)cc1OC
5,42,CCC1(CC)Cc2ccccc2-c2nc(NCCCO)[nH]c(=O)c21
6,> 42.2,O=C(CSc1ccccn1)Nc1nonc1[N+](=O)[O-]
7,> 43.4,N#C/C(=C\c1ccccc1C(=O)O)c1nc2ccccc2[nH]1
8,> 48.7,Cl.N=c1n(CCO)c2ccccc2n1CCN1CCCCC1
9,< 0.2,COc1ccc(-c2csc(Nc3cccc(C)n3)n2)cc1
10,> 40.8,CC(=O)N1C(C(=O)O)Cc2c([nH]c3ccccc23)C1C (centres undefined)
11,34.5,O=C(CCNS(=O)(=O)c1ccccc1F)OCc1ccccc1Cl
12,32.7,Cc1cccc(C)c1NC(=O)COC(=O)C1CC1
13,4.2,Cc1cc(F)ccc1S(=O)(=O)NCC1CC2CCC1C2 (centres undefined)
14,< 0.7,CC1(c2ccc(NC(=O)c3ccccc3F)cc2)CC1(Cl)Cl (centres undefined)
15,0.3,COc1cccc(Nc2nc(-c3sc(C)nc3C)cs2)c1
16,< 0.3,Cc1cccc(-c2nc3cc([N+](=O)[O-])ccc3o2)c1
17,> 44.5,CC(NS(=O)(=O)c1ccccc1)C(=O)NC1CCCC1 (centres undefined)
18,10.7,O=C(CN1CCN(c2ccccc2F)CC1)c1ccc(O)cc1O
19,5.3,CC1CCCC(NC(=O)c2ccc3c(c2)NC(=O)CS3)C1C (centres undefined)

row,solubility kinetic [µg/mL],SMILES
1,5.5,CCc1ccc(NS(=O)(=O)c2ccc3[nH]c(=O)[nH]c3c2)cc1
2,3.2,CCOC(=O)c1c(C)[nH]c(C(=O)OCc2ccc(C)cc2)c1C
3,< 0.2,Cc1cc2nc(=O)c(/C=C3\C=Nc4ccccc43)c(N)n2o1
4,> 44.5,Cc1ccc(-n2c(C)c(C)c3c(NCCO)ncnc32)cc1
5,17.4,CC(C)c1cccc(C(C)C)c1OC(=O)NC(=O)c1c(F)cccc1F
6,0.7,O=C(Nc1nonc1-c1ccc(Cl)cc1)c1ccccc1
7,32.3,O=C(NCCNC(=O)c1ccccc1O)c1ccccc1O
8,1.8,CC(C)c1ccc(C(O)Cc2nc3ccccc3n2C)cc1 (centres undefined)
9,> 66.1,N#Cc1cccc(C(=O)Nc2cc(S(=O)(=O)N3CCOCC3)ccc2N2CCCC2)c1
10,3.1,COc1ccc2nc(N/C(N)=N/S(C)(=O)=O)nc(C)c2c1
11,> 45.5,CC(=O)Nc1ccc(NC(=O)Cn2ccc([N+](=O)[O-])n2)cc1
12,> 38.1,CCC(C(=O)NCc1cccnc1)c1ccccc1 (centres undefined)
13,> 41.1,C/C(=N\NC(=O)c1ccc(Cl)cc1)c1ccccn1
14,0.4,Cn1c(=O)c2cc3ccc(Cl)cc3nc2n(C)c1=O
15,2.8,CN(C)c1ccc(C(=O)OCC(=O)NC2CCCCCC2)cc1
16,> 49,COc1ccc(C(=O)N2CCC3(CC2)NCCc2[nH]cnc23)cc1
17,> 44.5,CCCn1c(C)nnc1SCC(=O)NC1CCCCC1
18,5.2,CCN(CC)C(=S)SC1CCCCN(C(=O)c2ccc(F)cc2)C1=O (centres undefined)
19,11.2,COc1ccc(C(=O)CC(=O)C(=O)Nc2cc(C)ccc2C)cc1

row,solubility kinetic [µg/mL],SMILES
1,49.9,CN(CCO)CC(O)CN(c1ccccc1)c1ccccc1.Cl (centres undefined)
2,37.6,Cl.OC1(c2ccccc2)CCN(Cc2ccccc2)CC1
3,> 51.9,CCOC(=O)c1cc2c(n(-c3ccc(Cl)cc3)c1=O)CCCC2=O
4,50.8,CCc1ccc(S(=O)(=O)Nc2ccc(N3CCN(C)CC3)cc2)cc1
5,33,O=c1c(Cc2ccc(F)cc2)c(O)ccn1Cc1ccco1
6,3.4,Cc1coc2cc3oc(=O)c(CCC(=O)NCc4ccccn4)c(C)c3cc12
7,> 51.6,CC1CCCC(C)N1C(=O)COC(=O)c1ccc(Br)o1 (centres undefined)
8,49.2,CC(OC(=O)c1ccco1)C(=O)Nc1ncc(Cl)cc1Cl (centres undefined)
9,> 47.8,CCNC(=O)Cc1ccc(S(=O)(=O)N2CCOCC2)s1
10,39,CCc1noc(C)c1C(=O)Nc1ccccc1C(C)(C)C
11,> 50.3,OC[C@H]1O[C@@H](n2cnc3c(NC4CCCC4)ncnc32)[C@H](O)[C@@H]1O
12,> 75.7,CN1CCN(c2ccc(S(=O)(=O)N3CCOCC3)cc2NC(=O)CSCc2ccccc2)CC1
13,29,COc1ccccc1CCNC(=O)c1ccc(Br)s1
14,> 50.6,Cn1cccc1C1CCCN1CC(=O)Nc1ccc(F)c(F)c1F (centres undefined)
15,28.3,CCCn1cnc2cc(NCc3ccccc3O)ccc21
16,> 57.1,CN1CCCN=C1COC(=O)C(O)(c1ccccc1)C1CCCCC1.Cl (centres undefined)
17,> 45.8,CCOC(=O)c1cc2c(ccn2C)n1CC(=O)N(CC)CC
18,> 42.2,CCC(=O)Nc1cccc(-c2nc3ncccc3o2)c1C
19,> 43.7,O=C(COc1ccc2c(c1)OCO2)NCc1cccs1

row,SMILES,solubility kinetic [µg/mL]
1,O=C(O)C(=O)O.OC(CN1CCCC1)Cn1ccc2ccccc21 (centres undefined),> 50.2
2,COc1cc(N2C(=O)CC(=O)NC2=O)cc(OC)c1OC,40.7
